Where two headings read alike, the source gives them in different places.
Columns and labels:
[1] = Insulin requirement of diabetic patients on donepezil (case studies); assay type: in vivo, human; details: for insulin requirements at bedtime (lantus): patient eleven, before 35 units
[2] = Renal function (BUN, creatinine, ultrafiltration) in patients on donepezil (case studies); assay type: in vivo, human
[3] = Other clinical observations in diabetic patients on donepezil (case studies); assay type: in vivo, human
[4] = Coronary artery disease / congestive failure case studies: blood pressure and symptoms; assay type: in vivo, human
Text: The present disclosure provides clinical evidence of the use of an acetyl cholinesterase inhibitor for treating coronary artery diseases including heart disease.

HIV = HIV infection case studies: viral load and CD4 count; assay type: in vivo, human; details: for viral load / CD4 count: on antivirals
Text: The state of HIV infection is often monitored by CD4 counts (the higher the better) and circulating virus (the lower the better).

[5] = for fasting blood glucoses: patient eleven
[6] = Cephalization of body mass / weight loss case studies; details: patient seventeen; three months of donepezil 5 mg daily, no dieting or exercise program
[7] = patient twelve, over the next week of donepezil 5 mg daily
[8] = patient three, donepezil 5 mg daily, over the next week
[9] = patient six, two months of donepezil 5 mg daily

SMILES: COc1cc2c(cc1OC)C(=O)C(CC1CCN(Cc3ccccc3)CC1)C2 (centres unmarked) [donepezil]
- evening dose of glargine insulin ([1]; patient eighteen, donepezil 10 mg orally daily, one month, before 5 units): discontinued
- insulin requirements at bedtime (lantus) ([1]; donepezil increased to 10 mg daily): 12 units
- insulin requirements at bedtime (lantus) ([1]; over one month of donepezil 5 mg orally daily): 25 units
- pre prandial insulin coverage ([1]; patient four, after one month of donepezil 5 mg daily): eliminated
- requirement for lantus insulin ([1]; patient nineteen, donepezil 5 then 10 mg, before 12 units at bedtime): no longer required lantus insulin
- daily insulin requirement over a 24 hour period ([1]; patient one, after an additional month (two months) of donepezil 5 mg daily, before approx. 32 units): approximately 12 units
- insulin requirement for 24 hour period ([1]; patient one, insulin pump, after one month of donepezil 5 mg orally daily, before approx. 32 units): < 20 units
- pre-prandial insulin coverage (Novolog) ([1]; patient twelve, over 4 days of donepezil 5 mg daily, before 8 units): 4 units
- evening dose of lantus insulin ([1]; patient twelve, over 4 days of donepezil 5 mg daily, before 30 units): 20 units
- evening dose of lantus [1, 7]: 10 units
- pre prandial insulin coverage [1, 7]: eliminated
- dose of Humulin N in the AM ([1]; po, 5 mg): 10 units
- evening dose of Humulin ([1]; po, 5 mg): 20 units
- creatinine ([2]; patient fifteen, two months of donepezil 5 mg daily, before 1.8): 1.1
- BUN ([2]; patient fifteen, two months of donepezil 5 mg daily, before 40): 24
- creatinine ([2]; patient fourteen, five weeks of donepezil 5 then 10 mg, admission 2.0): 1.2
- ultrafiltration per dialysis ([2]; patient sixteen, hemodialysis, two months of donepezil 5 mg daily, before 5-6 liters three times weekly): less than 2 liter
- creatinine ([2]; patient twelve, one month of donepezil 5 mg daily, admission 1.6): 0.9
- BUN ([2]; patient twelve, one month of donepezil 5 mg daily, admission 38): 21
- lymphedema in lower extremities ([3]; patient five, over the next month of donepezil 5 mg orally daily): notable decline
- symptoms of painful diabetic polyneuropathy ([3]; patient four, one month of donepezil 5 mg daily): significantly reduced
- electrocardiogram ([3]; patient fourteen (history of atrial fibrillation), donepezil 10 mg orally daily, about five weeks): normal sinus rhythm
- foot drop ([3]; patient one, two months of donepezil 5 mg orally daily): resolved
- painful symptoms of diabetic polyneuropathy ([3]; patient seven, donepezil 5 mg orally daily): diminution
- edema in intact lower extremity ([3]; patient twelve, donepezil 5 mg daily): eliminated
- blood pressure ([4]; patient eight, after one month, midodrine and diuretic discontinued): 120/70
- blood pressure ([4]; patient eight, ensuing week of donepezil 5 mg daily): 110/60
- blood pressure ([4]; patient eight, over 5 days of donepezil 5 mg daily, midodrine decreased, before 85/60): 100/60
- blood pressure ([4]; patient eighteen, next 10 days of donepezil 5 mg daily): 100/70
- blood pressure ([4]; patient eighteen, over 7 days of donepezil 5 mg daily, before 80/50): 90/60
- blood pressure ([4]; patient seven, donepezil 5 mg daily, furosemide 20 mg every day): 110/70
- diastolic blood pressure ([4]; patient seven, first two weeks of donepezil 5 mg daily): less than 80 mm Hg
- diastolic blood pressure ([4]; patient seven, next two weeks of donepezil 5 mg daily): 70 mm Hg
- blood pressure ([4]; patient seventeen, follow up one month later on donepezil 5 mg daily): 120/60
- blood pressure ([4]; patient seventeen, ten days of donepezil 5 mg daily, midodrine discontinued): greater than 100/60
- blood pressure [4, 8]: normalized
- symptoms of congestive heart failure [4, 8]: resolved
- blood pressure ([4]; patient twenty, donepezil 5 mg daily, two weeks after nitrates and lisinopril discontinued): 120/70
- blood pressure ([4]; patient twenty, donepezil 5 mg daily, week after lisinopril decreased to 5 mg daily): 110/70
- blood pressure ([4]; patient twenty, over two weeks of donepezil 5 mg daily, before 80/50): 100/70
- shortness of breath ([4]; patient two, after one week of donepezil 5 mg daily): no further episodes of shortness of breath
- blood pressure ([4]; patient two, after one week of donepezil 5 mg daily with furosemide 40 mg daily): 100/60
- blood pressure ([4]; patient two, one week later, furosemide 20 mg every other day): 110/70
- viral load (HIV; patient six, one month of donepezil 5 mg orally daily, before 1-2 million): 1 million
- CD4 count (HIV; patient six, one month of donepezil 5 mg orally daily, before less than 20): 26
- CD4 count (HIV; [9]): 42
- viral load (HIV; [9]): non existent (below measurement detection)
- CD4 count (HIV; patient thirteen, two months of donepezil 5 mg daily, before 24): 36
- viral load (HIV; patient thirteen, two months of donepezil 5 mg daily, before over 4 million): 1.6 million
- weight gained (HIV; patient thirteen, two months of donepezil 5 mg daily): over 15 pounds
- fasting blood glucoses ([5]; donepezil 10 mg daily): less than 80 mg %
- fasting blood glucoses ([5]; first month, donepezil 5 mg orally daily): less than 80 mg %
- fasting blood sugars ([5]; patient fifteen, after one week of donepezil 5 mg daily): less than 100 mg %
- preprandial blood sugars ([5]; patient five, after 3 days of donepezil 5 mg orally daily plus prandin 2 mg, before 100-120): less than 80 mg %
- blood sugars ([5]; patient five, donepezil 5 mg daily, prandin discontinued, 1800 ADA diet): less than 110 mg %
- blood sugar at lunch, one episode ([5]; patient five, donepezil 5 mg orally daily plus prandin): less than 50 mg %
- other measured blood glucoses ([5]; patient nine, donepezil 10 mg, all oral hypoglycemic agents discontinued): less than 120 mg %
- fasting blood glucose levels ([5]; patient nine, over 7 days of donepezil 5 mg orally daily, micronase discontinued): less than 90 mg %
- blood glucose values ([5]; patient nineteen, donepezil 10 mg, metformin discontinued, 1800 cal ADA diet): less than 120 mg %
- fasting blood sugars ([5]; patient sixteen, following donepezil 5 mg daily, glipizide discontinued, before 150-200): less than 100 mg %
- fasting blood sugars ([5]; patient ten, first week of donepezil 5 mg orally daily): less than 100 mg %
- blood sugars ([5]; patient ten, next 7 days of donepezil 5 mg orally daily): less than 111 mg %
- fasting blood sugars ([5]; patient twelve, first 4 days of donepezil 5 mg daily): less than 100 mg %
- fasting blood sugars ([5]; patient twelve, next week of donepezil 5 mg daily): less than 100 mg %
- over all weight loss [6]: greater than 20 pounds
